Molecular target: T1, USP7 (Homo sapiens, UniProt Q93009)
T1 construct: The USP7 construct was PCR amplified and cloned into a pFLAG-CMV-6a vector (Sigma-Aldrich) with an N-terminal FLAG tag; made in house; host or cells: HEK293T
Experiment: USP7 biochemical IC50 assay (fluorescence polarisation, TAMRA labelled peptide linked to ubiquitin via an iso-peptide bond)
Settings: 30 min pre-incubation of enzyme and compound, read after 2 hr incubation at room temperature, read-out: IC50 range
Summary of the method: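 Fluorescence polarisation at 540 nm excitation/590 nm emission, read immediately and after 2 hr at room temperature, following addition of 50 nM TAMRA-labelled iso-peptide ubiquitin substrate.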

T1 sequence (Q93009 whole entry): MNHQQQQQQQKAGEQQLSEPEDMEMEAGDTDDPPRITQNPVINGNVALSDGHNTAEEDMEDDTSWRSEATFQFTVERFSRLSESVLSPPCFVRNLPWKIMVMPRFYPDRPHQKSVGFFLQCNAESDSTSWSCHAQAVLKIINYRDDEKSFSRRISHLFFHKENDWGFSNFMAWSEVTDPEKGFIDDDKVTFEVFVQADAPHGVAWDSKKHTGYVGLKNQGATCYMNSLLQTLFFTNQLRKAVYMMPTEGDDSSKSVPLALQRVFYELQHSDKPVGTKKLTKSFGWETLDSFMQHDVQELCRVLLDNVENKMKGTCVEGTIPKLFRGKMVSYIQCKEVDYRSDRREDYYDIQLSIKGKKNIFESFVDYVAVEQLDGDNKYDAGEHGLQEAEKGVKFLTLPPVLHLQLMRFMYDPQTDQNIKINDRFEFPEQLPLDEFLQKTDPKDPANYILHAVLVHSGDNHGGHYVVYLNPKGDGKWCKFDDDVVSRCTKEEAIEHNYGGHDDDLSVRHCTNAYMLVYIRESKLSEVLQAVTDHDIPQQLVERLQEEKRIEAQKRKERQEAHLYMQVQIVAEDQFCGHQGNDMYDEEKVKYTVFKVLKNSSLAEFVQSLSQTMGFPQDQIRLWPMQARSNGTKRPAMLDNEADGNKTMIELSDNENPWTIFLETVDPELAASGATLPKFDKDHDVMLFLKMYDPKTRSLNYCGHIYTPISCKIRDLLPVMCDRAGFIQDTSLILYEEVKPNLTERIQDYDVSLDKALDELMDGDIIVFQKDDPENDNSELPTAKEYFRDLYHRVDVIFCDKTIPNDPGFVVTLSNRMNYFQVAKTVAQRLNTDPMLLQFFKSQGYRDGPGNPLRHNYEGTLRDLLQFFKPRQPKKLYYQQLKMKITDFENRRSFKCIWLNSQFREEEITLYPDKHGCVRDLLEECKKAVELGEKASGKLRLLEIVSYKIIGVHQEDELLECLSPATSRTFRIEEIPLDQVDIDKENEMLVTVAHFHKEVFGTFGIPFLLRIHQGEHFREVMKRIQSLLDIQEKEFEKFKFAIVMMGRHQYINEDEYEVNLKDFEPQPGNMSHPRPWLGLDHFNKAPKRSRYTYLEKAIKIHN

Compound	IC50 [nM]
N#Cc1ccc(-c2cc(NCC(O)CO)cc3c2CN(C#N)C3)cc1 (stereo not shown) [Example 280, 4-(4-Cyanophenyl)-6-((2,3-dihydroxypropyl)amino)isoindoline-2-carbonitrile]	1000 to 10000
N#Cc1ccc(-c2cc(NCC3CCOCC3)cc3c2CN(C#N)C3)c(C(N)=O)c1 [Example 281, 5-Cyano-2-(2-cyano-6-(((tetrahydro-2H-pyran-4-yl)methyl)amino)isoindolin-4-yl)benzamide]	1000 to 10000
N#CN1Cc2cc(NC[C@H](O)CO)cc(-c3ccc(F)cc3)c2C1 [Example 282, (S)-6((2,3-dihydroxypropyl)amino)-4-(4-fluorophenyl)isoindoline-2-carbonitrile]	1000 to 10000
N#Cc1ccccc1-c1cc(NC[C@H](O)CO)cc2c1CN(C#N)C2 [Example 283, (S)-4-(2-cyanophenyl)-6-((2,3-dihydroxypropyl)amino)isoindoline-2-carbonitrile]	< 1000
COC(CO)CNc1cc2c(c(-c3ccc(C#N)cc3)c1)CN(C#N)C2 (stereo not shown) [Example 284, 4-(4-Cyanophenyl)-6-((3-hydroxy-2-methoxypropyl)amino)isoindoline-2-carbonitrile]	1000 to 10000
CN(C)c1cc2c(c(-c3ccc(C#N)cc3C(N)=O)c1)CN(C#N)C2 [Example 285, 5-Cyano-2-(2-cyano-6-(dimethylamino)isoindolin-4-yl)benzamide]	1000 to 10000
CC(O)CNc1cc2c(c(-c3ccc(C#N)cc3)c1)CN(C#N)C2 (stereo not shown) [Example 286, 4-(4-Cyanophenyl)-6-((2-hydroxypropyl)amino)isoindoline-2-carbonitrile]	1000 to 10000
CC(C)(O)CNc1cc2c(c(-c3ccc(C#N)cc3)c1)CN(C#N)C2 [Example 287, 4-(4-cyanophenyl)-6-((2-hydroxy-2-methylpropyl)amino)iso-indoline-2-carbonitrile]	1000 to 10000
COC(C)(O)CNc1cc2c(c(-c3ccc(C#N)cc3)c1)CN(C#N)C2 (stereo not shown) [Example 288, 4-(4-cyanophenyl)-6-((2-hydroxy-2-methoxypropyl)amino)iso-indoline-2-carbonitrile]	1000 to 10000
Cc1nc2c(c(-c3cccc(N4CCCC4=O)c3)n1)CN(C#N)C2 [Example 289, 2-methyl-4-(3-(2-oxopyrrolidin-1-yl)phenyl)-5,7-dihydro-6H-pyrrolo[3,4-d]pyrimidine-6-carbonitrile]	1000 to 10000
Cn1nccc1CNc1nc2c(c(-c3cccc(N4CCCC4=O)c3)n1)CN(C#N)C2 [Example 290, 2-(((1-methyl-1H-pyrazol-5-yl)methyl)amino)-4-(3-(2-oxopyrrolidin-1-yl)phenyl)-5,7-dihydro-6H-pyrrolo[3,4-d]pyrimidine-6-carbonitrile]	1000 to 10000

Further lines, results first:

IC50 [nM]	Compound
< 1000	N#CN1Cc2nc(NCCO)nc(-c3cccc(N4CCCC4=O)c3)c2C1 [Example 291, 2-((2-hydroxyethyl)amino)-4-(3-(2-oxopyrrolidin-1-yl)phenyl)-5,7-dihydro-6H-pyrrolo[3,4-d]pyrimidine-6-carbonitrile]
< 1000	N#CN1Cc2nc(NCCO)nc(-c3cccc(N4CCOC4=O)c3)c2C1 [Example 292, 2-((2-hydroxyethyl)amino)-4-(3-(2-oxooxazolidin-3-yl)phenyl)-5,7-dihydro-6H-pyrrolo[3,4-d]pyrimidine-6-carbonitrile]
1000 to 10000	CNC(=O)c1cc2c(c(-c3cc(OC)cnc3C#N)c1)CN(C#N)C2 [Example 293, 2-cyano-7-(2-cyano-5-methoxypyridin-3-yl)-N-methylisoindoline-5-carboxamide]
1000 to 10000	N#Cc1cc(-c2cn[nH]c2)ccc1-c1cccc2c1CN(C#N)C2 [Example 294, 4-(2-cyano-4-(1H-pyrazol-4-yl)phenyl)isoindoline-2-carbonitrile]
1000 to 10000	CN1CCCC(CN(C)c2nc3c(c(N4CCc5cccnc5C4)n2)CN(C#N)C3)C1 (stereo not shown) [Example 295, 4-(5,8-dihydro-1,7-naphthyridin-7(6H)-yl)-2-(methyl((1-methylpiperidin-3-yl)methyl)amino)-5,7-dihydro-6H-pyrrolo[3,4-d]pyrimidine-6-carbonitrile]
